Data published in patent US11974551B2, “L-serine compositions, methods and uses for treating neurodegenerative diseases and disorders” (priority 2011, dated 2024).

Tested on: Drosophila fruit flies
Assay: Fruit fly feeding: misincorporation of BMAA into proteins by LC/MS/MS
Format: in vivo, Drosophila melanogaster
Conditions: media with 25 mM BMAA and 25 mM L-Serine vs 25 mM BMAA, three days of feeding
Experimental: Thirty flies were from each treatment were weighed and sonicated (Fisher Scientific sonic dismembrator model 100; 2 watts for 30 secs) in 10% trichloroacetic acid (TCA 72 μg/μl). TCA extraction was completed in two steps 20 h at 4° C. using one half the TCA volume followed by centrifugation ([…] for 3 min, Labnet Spectrafuge™ 16M microcentrifuge) and removal of supernatant. This was followed by a second sonication and extraction, 5 hours at room temperature using an equal volume of TCA, followed by centrifugation and removal of supernatant. The supernatants were pooled (with the exception of 50 μl removed from the last extraction) and centrifuge filtered (0.22 μm Ultrafree®-MC, Millipore). The remaining protein pellet was transferred to a glass vial and hydrolyzed in 6 M HCl for 16 hours at 110° C. (58 μg/μl). […] Extracts were diluted and derivatized with 6-aminoquinolyl-N-hydroxysuccinimidyl carbamate (AQC) and analyzed by LC-MS/MS.
6-Aminoquinolyl-N-hydroxysuccinimidyl carbamate derivates (AQC Waters AccQTag reagent, P/N WAT052880) were analyzed using a triple quadrupole instrument (Thermo Scientific Finnigan TSQ Quantum Ultra, San Jose, CA) after separation by a Waters Acquity-UHPLC system with a Binary Solvent Manager, Sample Manager and a Waters AccQTag Ultra column (part#186003837, 2.1×100 mm) at 55° C. […]

Structure (SMILES): N[C@@H](CO)C(=O)O [L-serine]
- effect on amount of BMAA misincorporation into proteins: reduces BMAA incorporation into proteins
- effect on amount of BMAA misincorporation into proteins (listed as L-Serine): reduced by half
